# Patent US8952162B2, “Triazolopyridines as phosphodiesterase inhibitors for treatment of dermal diseases” (Leo Pharma A/S, priority 2008, dated 2015)
# Target: Human recombinant PDE4 (Genbank accession no NM—006203) (Homo sapiens, UniProt Q08499)
# Test: PDE4 assay (SPA, cAMP cleavage)
# Type: biochemical
# Conditions: Example 52; human recombinant PDE4, 1 hour incubation, cAMP 1×10^-5M, test compound up to 10 μM; read-out: PDE4 IC50 range
# Procedure: At the end of the incubation, the cleavage of the substrate was evaluated by the binding of the AMP product to SPA beads, which generate chemoluminescence when bound to the radioactive tracer. The AMP product inhibited the binding of the radioactive tracer to the beads, and the luminescent signal was competed.
# Sequence of Human recombinant PDE4 (Genbank accession no NM—006203) (Q08499 1-673 isoform Q08499-2): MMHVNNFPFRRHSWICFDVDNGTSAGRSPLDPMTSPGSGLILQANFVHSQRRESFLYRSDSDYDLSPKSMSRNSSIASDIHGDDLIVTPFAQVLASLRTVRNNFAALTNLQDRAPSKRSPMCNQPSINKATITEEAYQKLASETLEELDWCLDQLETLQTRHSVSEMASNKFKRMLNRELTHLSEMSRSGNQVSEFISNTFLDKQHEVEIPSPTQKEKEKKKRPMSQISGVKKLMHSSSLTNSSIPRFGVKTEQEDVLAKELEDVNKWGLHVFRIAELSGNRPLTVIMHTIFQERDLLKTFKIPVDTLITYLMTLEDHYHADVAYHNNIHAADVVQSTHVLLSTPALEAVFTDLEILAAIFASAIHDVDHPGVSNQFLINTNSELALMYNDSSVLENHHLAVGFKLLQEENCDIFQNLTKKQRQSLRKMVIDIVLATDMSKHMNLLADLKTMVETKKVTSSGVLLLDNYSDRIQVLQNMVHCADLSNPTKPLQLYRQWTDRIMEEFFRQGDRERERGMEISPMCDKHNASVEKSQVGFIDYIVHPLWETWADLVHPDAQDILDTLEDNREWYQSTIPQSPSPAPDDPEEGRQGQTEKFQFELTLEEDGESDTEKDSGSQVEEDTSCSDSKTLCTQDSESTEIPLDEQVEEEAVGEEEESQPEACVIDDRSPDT
row,IC50 [nM],Compound
1,500 to 1000,"COc1ccc(-c2cccc(S(C)(=O)=O)c2)n2nc(C3CC3)nc12 [Compound 112, 2-Cyclopropyl-5-(3-methanesulfonyl-phenyl)-8-methoxy-[1,2,4]triazolo[1,5-a]pyridine]"
2,< 500,"COc1ccc(-c2cccc(F)c2)n2nc(C3CC3)nc12 [Compound 125, 2-Cyclopropyl-5-(3-fluoro-phenyl)-8-methoxy-[1,2,4]triazolo[1,5-a]pyridine]"
3,< 500,"COc1ccc(-c2cccnc2)n2nc(C3CC3)nc12 [Compound 118, 2-Cyclopropyl-8-methoxy-5-pyridin-3-yl-[1,2,4]triazolo[1,5-a]pyridine]"
4,< 500,"COc1ccc(N2CCCCC2)n2nc(C3CC3)nc12 [Compound 143, 2-Cyclopropyl-8-methoxy-5-piperidin-1-yl-[1,2,4]triazolo[1,5-a]pyridine]"
5,> 1000,"COc1ccc(-c2ccc(NC(C)=O)cc2)n2nc(C3CC3)nc12 [Compound 116, N-[4-(2-Cyclopropyl-8-methoxy-[1,2,4]triazolo[1,5-a]pyridin-5-yl)-phenyl]-acetamide]"
6,> 1000,"COc1ccc(-c2ccc(CNC(C)=O)cc2)n2nc(C3CC3)nc12 [Compound 129, N-[4-(2-Cyclopropyl-8-methoxy-[1,2,4]triazolo[1,5-a]pyridin-5-yl)-benzyl]-acetamide]"
7,< 500,"COc1ccc(-c2cccc(OC(F)(F)F)c2)n2nc(C3CC3)nc12 [Compound 108, 2-Cyclopropyl-8-methoxy-5-(3-trifluoromethoxy-phenyl)-[1,2,4]triazolo[1,5-a]pyridine]"
8,> 1000,"COc1ccc(-c2ccc(S(=O)(=O)NCCO)cc2)n2nc(C3CC3)nc12 [Compound 134, 4-(2-Cyclopropyl-8-methoxy-[1,2,4]triazolo[1,5-a]pyridin-5-yl)-N-(2-hydroxy-ethyl)-benzenesulfonamide]"
9,< 500,"COc1ccc(-c2ccncc2)n2nc(C3CC3)nc12 [Compound 126, 2-Cyclopropyl-8-methoxy-5-pyridin-4-yl-[1,2,4]triazolo[1,5-a]pyridine]"
10,< 500,"COc1cccc(-c2ccc(OC)c3nc(C4CC4)nn23)c1 [Compound 109, 2-Cyclopropyl-8-methoxy-5-(3-methoxy-phenyl)-[1,2,4]triazolo[1,5-a]pyridine]"
11,500 to 1000,"COc1ccc(-c2cncnc2)n2nc(C3CC3)nc12 [Compound 111, 2-Cyclopropyl-8-methoxy-5-pyrimidin-5-yl-[1,2,4]triazolo[1,5-a]pyridine]"

row,Compound,IC50 [nM]
1,"CCCCOc1cccc(-c2ccc(OC)c3nc(C4CC4)nn23)c1 [Compound 124, 5-(3-Butoxy-phenyl)-2-cyclopropyl-8-methoxy-[1,2,4]triazolo[1,5-a]pyridine]",< 500

# Same assay, conditions: Example 53; PDE4 assay as in example 52; read-out: PDE4 IC50 range
row,IC50 [nM],Compound
1,< 500,"COc1ccc(-c2cccc(C#N)c2)n2nc(C3(C(=O)NCCO)CC3)nc12 [Compound 228, 1-[5-(3-Cyano-phenyl)-8-methoxy-[1,2,4]triazolo[1,5-a]pyridin-2-yl]-cyclopropanecarboxylic acid (2-hydroxy-ethyl)-amide]"
2,500 to 1000,"COc1ccc(C2=NNC(=O)CC2C)n2nc(C3CC3)nc12 (stereo not drawn) [Compound 158, 6-(2-Cyclopropyl-8-methoxyl-[1,2,4]triazolo[1,5-a]pyridin-5-yl)-5-methyl-4,5-dihydro-2H-pyridazin-3-one]"
3,< 500,"CCCNC(=O)OCC1(c2nc3c(OC)ccc(-c4ccc5c(c4)CCC5=O)n3n2)CC1 [Compound 230, Propyl-carbamic acid 1-[8-methoxy-5-(1-oxo-indan-5-yl)-[1,2,4]triazolo[1,5-a]pyridin-2-yl]-cyclopropylmethyl ester]"
4,< 500,"COc1ccc(-c2ccc(C#N)cc2)n2nc(C3(C(=O)NCCNS(C)(=O)=O)CC3)nc12 [Compound 217, 1-[5-(4-Cyano-phenyl)-8-methoxy-[1,2,4]triazolo[1,5-a]pyridin-2-yl]-cyclopropanecarboxylic acid (2-methanesulfonylamino-ethyl)-amide]"
5,< 500,"COc1ccc(-c2cccc(C#N)c2)n2nc(C3(C(=O)NC(C)C)CC3)nc12 [Compound 194, 1-[5-(3-Cyano-phenyl)-8-methoxyl-[1,2,4]triazolo[1,5-a]pyridin-2-yl]-cyclopropanecarboxylic acid isopropylamide]"
6,< 500,"CCCNC(=O)OCC1(c2nc3c(OC)ccc(-c4cncc(C#N)c4)n3n2)CC1 [Compound 236, Propyl-carbamic acid 1-[5-(5-cyano-pyridin-3-yl)-8-methoxy-[1,2,4]triazolo[1,5-a]pyridin-2-yl]-cyclopropylmethyl ester]"
7,< 500,"COc1ccc(-c2ccc(C#N)cc2)n2nc(C3(C(=O)NCCS(=O)(=O)N(C)C)CC3)nc12 [Compound 219, 1-[5-(4-Cyano-phenyl)-8-methoxy-[1,2,4]triazolo[1,5-a]pyridin-2-yl]-cyclopropanecarboxylic acid (2-dimethylsulfamoyl-ethyl)-amide]"
8,< 500,"COc1ccc(-c2ccc(C#N)cc2)n2nc(C3(C(=O)NCC#N)CC3)nc12 [Compound 215, 1-[5-(4-Cyano-phenyl)-8-methoxy-[1,2,4]triazolo[1,5-a]pyridin-2-yl]-cyclopropanecarboxylic acid cyanomethyl-amide]"
9,< 500,"COc1ccc(-c2cccc(C#N)c2)n2nc(C3(COC(=O)N4CCCC4)CC3)nc12 [Compound 151, Pyrrolidine-1-carboxylic acid 1-[5-(3-cyano-phenyl)-8-methoxy-[1,2,4]triazolo[1,5-a]pyridin-2-yl]-cyclopropylmethyl ester]"
10,< 500,"COc1ccc(-c2ccc3c(c2)COC3=O)n2nc(C3(C(=O)NCc4ccccc4)CC3)nc12 [Compound 179, 1-[8-Methoxy-5-(1-oxo-1,3-dihydro-isobenzofuran-5-yl)-[1,2,4]triazolo[1,5-a]pyridin-2-yl]-cyclopropanecarboxylic acid benzylamide]"
11,< 500,"COc1ccc(-c2cccc(C#N)c2)n2nc(C3(COCc4ccccc4)CC3)nc12 [Compound 153, 3-[2-(1-Benzyloxymethyl-cyclopropyl)-8-methoxy-[1,2,4]-triazolo[1,5-a]pyridin-5-yl]-benzonitrile]"
12,< 500,"COc1ccc(-c2cccc3c2CCC3=O)n2nc(C3(COC(=O)NC4CCCCC4)CC3)nc12 [Compound 240, Cyclohexyl-carbamic acid 1-[8-methoxy-5-(1-oxo-indan-4-yl)-[1,2,4]triazolo[1,5-a]pyridin-2-yl]-cyclopropylmethyl ester]"
13,< 500,"COc1cc(-c2ccc(OC)c3nc(C4(COC(=O)NC5CCCCC5)CC4)nn23)ccc1C#N [Compound 241, Cyclohexyl-carbamic acid 1-[5-(4-cyano-3-methoxy-phenyl)-8-methoxy-[1,2,4]triazolo[1,5-a]pyridin-2-yl]-cyclopropylmethyl ester]"
14,< 500,"COc1ccc(-c2ccc3c(c2)COC3=O)n2nc(C3(C(=O)NCC4CCCCC4)CC3)nc12 [Compound 270, 1-[8-Methoxy-5-(1-oxo-1,3-dihydro-isobenzofuran-5-yl)-[1,2,4]triazolo[1,5-a]pyridin-2-yl]-cyclopropanecarboxylic acid cyclohexylmethyl-amide]"
15,< 500,"COc1ccc(-c2ccc(C#N)cc2)n2nc(C3(C(N)=O)CC3)nc12 [Compound 148, 1-[5-(4-Cyano-phenyl)-8-methoxy-[1,2,4]triazolo[1,5-a]pyridin-2-yl]-cyclopropanecarboxylic acid amide]"
16,< 500,"COc1ccc(-c2ccc(C#N)c(C)c2)n2nc(C3CC3)nc12 [Compound 161, 4-(2-Cyclopropyl-8-methoxyl-[1,2,4]triazolo[1,5-a]pyridin-5-yl)-2-methyl-benzonitrile]"
17,< 500,"COc1ccc(-c2cccc(C#N)c2)n2nc(C3(C(=O)NCCS(N)(=O)=O)CC3)nc12 [Compound 198, 1-[5-(3-Cyano-phenyl)-8-methoxyl-[1,2,4]triazolo[1,5-a]pyridin-2-yl]-cyclopropanecarboxylic acid (2-sulfamoyl-ethyl)-amide]"
18,< 500,"COc1ccc(-c2cccc(C#N)c2)n2nc(C3(COC(=O)NC(C)C)CC3)nc12 [Compound 152, Isopropyl-carbamic acid 1-[5-(3-cyano-phenyl)-8-methoxy-[1,2,4]triazolo[1,5-a]pyridin-2-yl]-cyclopropylmethyl ester]"
19,< 500,"COc1ccc(-c2ccc3c(c2)CCC3=O)n2nc(C3(COC(=O)N4CCCC4)CC3)nc12 [Compound 238, Pyrrolidine-1-carboxylic acid 1-[8-methoxy-5-(1-oxo-indan-5-yl)-[1,2,4]triazolo[1,5-a]pyridin-2-yl]-cyclopropylmethyl ester]"
20,< 500,"COc1ccc(-c2cccc(C#N)c2)n2nc(C3(C(=O)NCc4cccnc4)CC3)nc12 [Compound 195, 1-[5-(3-Cyano-phenyl)-8-methoxy-[1,2,4]triazolo[1,5-a]pyridin-2-yl]-cyclopropanecarboxylic acid (pyridin-3-ylmethyl)-amide]"
21,< 500,"COc1ccc(-c2cccc(C(C)=O)c2)n2nc(C3(C(=O)NCc4cccnc4)CC3)nc12 [Compound 221, 1-[5-(3-Acetyl-phenyl)-8-methoxy-[1,2,4]triazolo[1,5-a]pyridin-2-yl]-cyclopropanecarboxylic acid (pyridin-3-ylmethyl)-amide]"
